Test results as given in the NIST ThermoML archive (doi:10.1021/je050060q).
Numbers after ± are expanded uncertainties.

Test: xn = mol fraction of the nth substance listed
Settings: 101.3 kPa, Liquid; for mass density: Pycnometric method

CCCCCCCCCCCCCCCC [hexadecane] + CCCCCC
Settings	mass density [kg/m3]	speed of sound [m/s]
293.15 K, x2 = 0.1	768.1 ± 0.25	1341 ± 3
293.15 K, x2 = 0.2	762.36 ± 0.24	1327 ± 3
293.15 K, x2 = 0.3	756.02 ± 0.23	1314 ± 3
293.15 K, x2 = 0.4	748.67 ± 0.22	1297 ± 3
293.15 K, x2 = 0.5	740.14 ± 0.21	1277 ± 3
293.15 K, x2 = 0.6	729.79 ± 0.2	1254 ± 3
293.15 K, x2 = 0.7	717.46 ± 0.2	1228 ± 3
293.15 K, x2 = 0.8	702.3 ± 0.19	1196 ± 3
293.15 K, x2 = 0.9	683.23 ± 0.18	1151 ± 3
298.15 K, x2 = 0.1	764.7 ± 0.25	1322 ± 3
298.15 K, x2 = 0.2	758.88 ± 0.24	1308 ± 3
298.15 K, x2 = 0.3	752.56 ± 0.24	1295 ± 3
298.15 K, x2 = 0.4	745.03 ± 0.23	1277 ± 3
298.15 K, x2 = 0.5	736.52 ± 0.22	1257 ± 3
298.15 K, x2 = 0.6	726.08 ± 0.21	1234 ± 3
298.15 K, x2 = 0.7	713.68 ± 0.2	1207 ± 3
298.15 K, x2 = 0.8	698.4 ± 0.19	1175 ± 3
298.15 K, x2 = 0.9	679.04 ± 0.18	1129 ± 3
303.15 K, x2 = 0.1	761.25 ± 0.26	1304 ± 3
303.15 K, x2 = 0.2	755.4 ± 0.25	1289 ± 3
303.15 K, x2 = 0.3	749.09 ± 0.24	1275 ± 3
303.15 K, x2 = 0.4	741.49 ± 0.24	1258 ± 3
303.15 K, x2 = 0.5	732.9 ± 0.23	1237 ± 3
303.15 K, x2 = 0.6	722.32 ± 0.22	1215 ± 3
303.15 K, x2 = 0.7	709.86 ± 0.21	1187 ± 3
303.15 K, x2 = 0.8	694.47 ± 0.2	1154 ± 3
303.15 K, x2 = 0.9	674.8 ± 0.19	1108 ± 3
308.15 K, x2 = 0.1	757.78 ± 0.27	1285 ± 3
308.15 K, x2 = 0.2	751.9 ± 0.26	1270 ± 3
308.15 K, x2 = 0.3	745.61 ± 0.25	1256 ± 3
308.15 K, x2 = 0.4	737.93 ± 0.24	1238 ± 3
308.15 K, x2 = 0.5	729.25 ± 0.24	1217 ± 3
308.15 K, x2 = 0.6	718.63 ± 0.23	1195 ± 3
308.15 K, x2 = 0.7	706.03 ± 0.22	1167 ± 3
308.15 K, x2 = 0.8	690.5 ± 0.21	1133 ± 3
308.15 K, x2 = 0.9	670.53 ± 0.2	1086 ± 3
313.15 K, x2 = 0.1	754.31 ± 0.27	1266 ± 3
313.15 K, x2 = 0.2	748.41 ± 0.27	1251 ± 3
313.15 K, x2 = 0.3	741.92 ± 0.26	1237 ± 3
313.15 K, x2 = 0.4	734.37 ± 0.25	1219 ± 3
313.15 K, x2 = 0.5	725.59 ± 0.24	1198 ± 3
313.15 K, x2 = 0.6	714.88 ± 0.24	1175 ± 3
313.15 K, x2 = 0.7	702.18 ± 0.23	1146 ± 3
313.15 K, x2 = 0.8	686.49 ± 0.22	1112 ± 3
313.15 K, x2 = 0.9	666.22 ± 0.21	1065 ± 3
318.15 K, x2 = 0.1	750.84 ± 0.28	1248 ± 3
318.15 K, x2 = 0.2	744.91 ± 0.27	1232 ± 3
318.15 K, x2 = 0.3	738.42 ± 0.27	1219 ± 3
318.15 K, x2 = 0.4	730.8 ± 0.26	1200 ± 3
318.15 K, x2 = 0.5	721.92 ± 0.25	1178 ± 3
318.15 K, x2 = 0.6	711.12 ± 0.24	1156 ± 3
318.15 K, x2 = 0.7	698.3 ± 0.23	1126 ± 3
318.15 K, x2 = 0.8	682.45 ± 0.23	1091 ± 3
318.15 K, x2 = 0.9	661.87 ± 0.22	1044 ± 3
323.15 K, x2 = 0.1	747.36 ± 0.29	1230 ± 3
323.15 K, x2 = 0.2	741.4 ± 0.28	1214 ± 3
323.15 K, x2 = 0.3	734.92 ± 0.27	1200 ± 3
323.15 K, x2 = 0.4	727.21 ± 0.27	1181 ± 3
323.15 K, x2 = 0.5	718.23 ± 0.26	1159 ± 3
323.15 K, x2 = 0.6	707.34 ± 0.25	1136 ± 3
323.15 K, x2 = 0.7	694.38 ± 0.24	1107 ± 3
323.15 K, x2 = 0.8	678.36 ± 0.23	1071 ± 3
323.15 K, x2 = 0.9	657.47 ± 0.22	1023 ± 3
328.15 K, x2 = 0.1	743.88 ± 0.3	1211 ± 3
328.15 K, x2 = 0.2	737.89 ± 0.29	1196 ± 3
328.15 K, x2 = 0.3	731.41 ± 0.28	1182 ± 3
328.15 K, x2 = 0.4	723.62 ± 0.28	1163 ± 3
328.15 K, x2 = 0.5	714.52 ± 0.27	1140 ± 3
328.15 K, x2 = 0.6	703.55 ± 0.26	1117 ± 3
328.15 K, x2 = 0.7	690.44 ± 0.25	1087 ± 3
328.15 K, x2 = 0.8	674.25 ± 0.24	1050 ± 3
328.15 K, x2 = 0.9	653.04 ± 0.23	1002 ± 3
333.15 K, x2 = 0.1	740.37 ± 0.3	1193 ± 3
333.15 K, x2 = 0.2	734.36 ± 0.3	1177 ± 3
333.15 K, x2 = 0.3	727.88 ± 0.29	1163 ± 3
333.15 K, x2 = 0.4	720.01 ± 0.28	1144 ± 3
333.15 K, x2 = 0.5	710.8 ± 0.28	1122 ± 3
333.15 K, x2 = 0.6	699.74 ± 0.27	1098 ± 3
333.15 K, x2 = 0.7	686.47 ± 0.26	1067 ± 3
333.15 K, x2 = 0.8	670.09 ± 0.25	1030 ± 3
333.15 K, x2 = 0.9	648.56 ± 0.24	981 ± 3
338.15 K, x2 = 0.1	–	1176 ± 3
338.15 K, x2 = 0.2	–	1160 ± 3
338.15 K, x2 = 0.3	–	1145 ± 3
338.15 K, x2 = 0.4	–	1126 ± 3
338.15 K, x2 = 0.5	–	1103 ± 3
338.15 K, x2 = 0.6	–	1079 ± 3
338.15 K, x2 = 0.7	–	1048 ± 3
338.15 K, x2 = 0.8	–	1010 ± 3
338.15 K, x2 = 0.9	–	960 ± 3
343.15 K, x2 = 0.1	–	1158 ± 3
343.15 K, x2 = 0.2	–	1142 ± 3
343.15 K, x2 = 0.3	–	1127 ± 3
343.15 K, x2 = 0.4	–	1108 ± 3
343.15 K, x2 = 0.5	–	1084 ± 3
343.15 K, x2 = 0.6	–	1060 ± 3
343.15 K, x2 = 0.7	–	1029 ± 3
343.15 K, x2 = 0.8	–	990 ± 3
343.15 K, x2 = 0.9	–	939 ± 3
348.15 K, x2 = 0.1	–	1140 ± 3
348.15 K, x2 = 0.2	–	1124 ± 3
348.15 K, x2 = 0.3	–	1109 ± 3
348.15 K, x2 = 0.4	–	1089 ± 3
348.15 K, x2 = 0.5	–	1066 ± 3
348.15 K, x2 = 0.6	–	1042 ± 3
348.15 K, x2 = 0.7	–	1010 ± 3
348.15 K, x2 = 0.8	–	971 ± 3
348.15 K, x2 = 0.9	–	918 ± 3
353.15 K, x2 = 0.1	–	1123 ± 3
353.15 K, x2 = 0.2	–	1106 ± 3
353.15 K, x2 = 0.3	–	1092 ± 3
353.15 K, x2 = 0.4	–	1072 ± 3
353.15 K, x2 = 0.5	–	1048 ± 3
353.15 K, x2 = 0.6	–	1023 ± 3
353.15 K, x2 = 0.7	–	991 ± 3
353.15 K, x2 = 0.8	–	951 ± 3
353.15 K, x2 = 0.9	–	898 ± 3
358.15 K, x2 = 0.1	–	1106 ± 3
358.15 K, x2 = 0.2	–	1089 ± 3
358.15 K, x2 = 0.3	–	1074 ± 3
358.15 K, x2 = 0.4	–	1054 ± 3
358.15 K, x2 = 0.5	–	1030 ± 3
358.15 K, x2 = 0.6	–	1005 ± 3
358.15 K, x2 = 0.7	–	972 ± 3
358.15 K, x2 = 0.8	–	932 ± 3
358.15 K, x2 = 0.9	–	877 ± 3
363.15 K, x2 = 0.1	–	1088 ± 3
363.15 K, x2 = 0.2	–	1071 ± 3
363.15 K, x2 = 0.3	–	1057 ± 3
363.15 K, x2 = 0.4	–	1036 ± 3
363.15 K, x2 = 0.5	–	1012 ± 3
363.15 K, x2 = 0.6	–	986 ± 3
363.15 K, x2 = 0.7	–	953 ± 3
363.15 K, x2 = 0.8	–	912 ± 3
363.15 K, x2 = 0.9	–	857 ± 3
368.15 K, x2 = 0.1	–	1072 ± 3
368.15 K, x2 = 0.2	–	1054 ± 3
368.15 K, x2 = 0.3	–	1039 ± 3
368.15 K, x2 = 0.4	–	1019 ± 3
368.15 K, x2 = 0.5	–	995 ± 3
368.15 K, x2 = 0.6	–	968 ± 3
368.15 K, x2 = 0.7	–	935 ± 3
368.15 K, x2 = 0.8	–	893 ± 3
368.15 K, x2 = 0.9	–	837 ± 3
373.15 K, x2 = 0.1	–	1055 ± 3
373.15 K, x2 = 0.2	–	1037 ± 3
373.15 K, x2 = 0.3	–	1022 ± 3
373.15 K, x2 = 0.4	–	1002 ± 3
373.15 K, x2 = 0.5	–	977 ± 3
373.15 K, x2 = 0.6	–	950 ± 3
373.15 K, x2 = 0.7	–	916 ± 3
373.15 K, x2 = 0.8	–	874 ± 3
373.15 K, x2 = 0.9	–	816 ± 3
